Assays:
[1] = target: ATP-dependent translocase ABCB1 (Mus musculus, UniProt P21447); experiment: TP_TRANSPORTER: increase in brain concentration in mdr1a(-/-) mouse; format: functional, organism-based; conditions: in vivo
[2] = target: ATP-dependent translocase ABCB1 (Homo sapiens, UniProt P08183); experiment: TP_TRANSPORTER: transepithelial transport (basal to apical) in Caco-2 cells; format: functional, cell-based
Sequence of ATP-dependent translocase ABCB1 (Homo sapiens, UniProt P08183) (P08183 whole entry): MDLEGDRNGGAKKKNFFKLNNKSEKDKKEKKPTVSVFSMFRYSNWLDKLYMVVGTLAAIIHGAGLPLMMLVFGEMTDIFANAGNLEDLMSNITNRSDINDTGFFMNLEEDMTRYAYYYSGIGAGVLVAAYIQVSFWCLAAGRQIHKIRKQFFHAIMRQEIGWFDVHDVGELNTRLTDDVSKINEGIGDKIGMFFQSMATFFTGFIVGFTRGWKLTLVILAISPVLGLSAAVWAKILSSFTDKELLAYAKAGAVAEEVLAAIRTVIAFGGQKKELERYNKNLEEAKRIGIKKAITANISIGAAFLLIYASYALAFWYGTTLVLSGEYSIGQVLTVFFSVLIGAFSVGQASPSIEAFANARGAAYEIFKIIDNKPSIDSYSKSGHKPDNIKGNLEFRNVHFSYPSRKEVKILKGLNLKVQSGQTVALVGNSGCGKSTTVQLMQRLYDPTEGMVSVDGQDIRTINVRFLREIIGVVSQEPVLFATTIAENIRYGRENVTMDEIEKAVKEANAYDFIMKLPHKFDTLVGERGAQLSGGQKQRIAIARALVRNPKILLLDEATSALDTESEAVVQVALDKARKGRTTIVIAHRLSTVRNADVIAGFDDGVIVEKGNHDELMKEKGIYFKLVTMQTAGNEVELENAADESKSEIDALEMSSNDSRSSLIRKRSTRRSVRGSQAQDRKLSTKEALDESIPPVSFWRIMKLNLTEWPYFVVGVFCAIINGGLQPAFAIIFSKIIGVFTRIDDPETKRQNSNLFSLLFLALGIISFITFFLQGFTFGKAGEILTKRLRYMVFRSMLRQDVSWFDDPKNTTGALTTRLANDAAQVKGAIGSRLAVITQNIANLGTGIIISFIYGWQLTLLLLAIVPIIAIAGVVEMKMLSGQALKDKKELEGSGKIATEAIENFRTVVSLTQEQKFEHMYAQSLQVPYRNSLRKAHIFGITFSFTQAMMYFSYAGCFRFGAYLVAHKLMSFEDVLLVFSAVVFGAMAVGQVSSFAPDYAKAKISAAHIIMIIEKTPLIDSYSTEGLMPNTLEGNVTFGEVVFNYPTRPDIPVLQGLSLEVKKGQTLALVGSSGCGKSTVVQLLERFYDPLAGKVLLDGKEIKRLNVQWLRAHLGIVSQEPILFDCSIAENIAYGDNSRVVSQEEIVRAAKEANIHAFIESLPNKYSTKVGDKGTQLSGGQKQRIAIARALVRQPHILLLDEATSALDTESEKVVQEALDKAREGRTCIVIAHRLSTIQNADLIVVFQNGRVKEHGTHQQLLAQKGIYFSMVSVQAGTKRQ

Sequence of ATP-dependent translocase ABCB1 (Mus musculus, UniProt P21447) (P21447 whole entry): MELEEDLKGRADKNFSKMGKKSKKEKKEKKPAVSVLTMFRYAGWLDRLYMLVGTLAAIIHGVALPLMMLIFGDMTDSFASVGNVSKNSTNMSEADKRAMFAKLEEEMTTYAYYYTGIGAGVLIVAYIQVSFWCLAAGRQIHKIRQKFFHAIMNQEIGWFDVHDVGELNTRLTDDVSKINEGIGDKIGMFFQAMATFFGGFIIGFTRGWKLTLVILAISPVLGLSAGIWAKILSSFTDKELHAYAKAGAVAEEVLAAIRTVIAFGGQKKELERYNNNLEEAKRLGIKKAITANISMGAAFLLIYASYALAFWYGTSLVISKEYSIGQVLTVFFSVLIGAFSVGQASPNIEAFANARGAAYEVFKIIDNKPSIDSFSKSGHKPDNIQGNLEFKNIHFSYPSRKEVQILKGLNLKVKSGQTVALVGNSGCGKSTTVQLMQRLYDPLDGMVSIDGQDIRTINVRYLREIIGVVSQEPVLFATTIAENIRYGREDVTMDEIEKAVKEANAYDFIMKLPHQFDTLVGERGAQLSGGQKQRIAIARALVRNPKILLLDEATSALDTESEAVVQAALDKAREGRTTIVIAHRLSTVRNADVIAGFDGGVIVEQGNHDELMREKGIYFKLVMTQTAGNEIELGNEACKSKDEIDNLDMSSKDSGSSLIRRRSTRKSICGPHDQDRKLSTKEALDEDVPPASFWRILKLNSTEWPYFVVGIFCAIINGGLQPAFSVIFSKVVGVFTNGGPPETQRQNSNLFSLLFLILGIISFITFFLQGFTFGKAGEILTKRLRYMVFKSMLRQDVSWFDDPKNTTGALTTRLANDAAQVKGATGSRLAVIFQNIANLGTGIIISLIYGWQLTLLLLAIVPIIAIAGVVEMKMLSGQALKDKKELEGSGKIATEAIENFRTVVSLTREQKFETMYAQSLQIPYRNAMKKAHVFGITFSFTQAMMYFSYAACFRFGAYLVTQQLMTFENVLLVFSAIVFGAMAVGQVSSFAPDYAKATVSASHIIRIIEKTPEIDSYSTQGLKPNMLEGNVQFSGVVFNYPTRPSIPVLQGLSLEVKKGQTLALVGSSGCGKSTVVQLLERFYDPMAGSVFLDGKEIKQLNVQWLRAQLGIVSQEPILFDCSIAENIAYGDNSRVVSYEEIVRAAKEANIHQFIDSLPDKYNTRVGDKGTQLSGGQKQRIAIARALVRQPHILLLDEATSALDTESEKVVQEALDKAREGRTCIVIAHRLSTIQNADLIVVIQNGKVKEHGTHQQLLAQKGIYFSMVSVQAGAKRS

Cc1nnc2n1-c1sc(CCC(=O)N3CCOCC3)cc1C(c1ccccc1Cl)=NC2 [APAFANT]
Activity [1]: substrate [+]
Activity [2]: substrate [+]

From ChEMBL document CHEMBL2074496, “Altered drug disposition of the platelet activating factor antagonist apafant in mdr1a knockout mice” (Eur J Pharm Sci, 2002)
